Data set [1] can be described thus: Color and clarity of solution test. It is filed as physicochemical. The settings on record: 0.5 g dissolved in 10 ml dilute ammonia solution (1→100). The procedure: “Color and clarity of solution test” is particularly important, and also a required inspection item for active ingredients used in preparations for injection. Weigh 0.5 g of the crystalline form A obtained in example 5, dissolve it with 10 ml dilute ammonia solution (1→100), and the solution may be clear and colorless. If the solution is colored, compare it with the yellow 2 #standard color solution (Method 1, General Principles 0901, the Chinese Pharmacopoeia), and the former should not be intensely colored than the latter. If the solution is turbid, compare it with the turbidity 0.5 #standard solution (Method 1, General Principles 0902, the Chinese Pharmacopoeia), and the former should not be more intensely turbid than the latter.

Data set [2] can be described thus: Measurement of particle size and specific surface area. It is filed as physicochemical. An excerpt:
For the purpose of this application, “X10” represents the particle diameter corresponding to 10% of the particle size distribution, in other words, cumulative 10% of the particles in all the tested particles are smaller than X10; “X50” represents the particle size corresponding to 50% of the particle size distribution, in other words, cumulative 50% of the particles in all the tested particles are smaller than X50; “X90” represents the particle size corresponding to 90% of the particle size distribution, in other words, cumulative 90% of the particles in all the tested particles are smaller than X90.
Sv and Sm denote specific surface areas, i.e., total surface area of a material per unit volume (Sv) and total surface area of a material per unit of mass (Sm) respectively.
Particle size distribution is determined according to the laser method using the instrument below: full-automatic dry-wet laser particle sizer, VIBRI (HELOSBR).

Data set [3] deals with liver-injury animal models induced by different hepatotoxic agents. The settings on record: cited from earlier work.
Where [4] appears, read: particle size distribution, laser method.
The mark [5] stands for this setting: liver-injury animal models induced by different hepatotoxic agents.

Each structure is given as a SMILES string.

Turning to `CC1(C)[C@@H](O[C@H]2O[C@H](C(=O)[O-])[C@@H](O)[C@H](O)[C@H]2O[C@@H]2O[C@H](C(=O)[O-])[C@@H](O)[C@H](O)[C@H]2O)CC[C@]2(C)[C@H]3C(=O)C=C4[C@H]5C[C@@](C)(C(=O)O)CC[C@]5(C)CC[C@@]4(C)[C@]3(C)CC[C@@H]12.[Mg+2]` [crystalline form A, magnesium isoglycyrrhizinate], the clarity test entry in data set [1] (compared with turbidity 0.5# standard solution) is “The solution is clear, and less”. Also, in data set [1] (compared with yellow 2# standard color solution), the “color of solution test” value is “The solution is colorless, and less”. Besides, in data set [2] (setting [4]), the X10 was 6.19 μm, the X50 is on record as 42.18 μm and the X90 is reported as 91.80 μm. The same compound gave a Sm in data set [2] (specific surface area per unit of mass) of 0.64 m^2/g. The compound also yielded a Sv in data set [2] (specific surface area per unit volume) of 0.44 m^2/cm^3.
Consider `CC1(C)[C@@H](O[C@H]2O[C@H](C(=O)[O-])[C@@H](O)[C@H](O)[C@H]2O[C@@H]2O[C@H](C(=O)[O-])[C@@H](O)[C@H](O)[C@H]2O)CC[C@]2(C)[C@H]3C(=O)C=C4[C@H]5C[C@@](C)(C(=O)O)CC[C@]5(C)CC[C@@]4(C)[C@]3(C)CC[C@@H]12.[Mg+2]` [magnesium isoglycyrrhizinate], for which, in data set [3] (setting [5]), the “hepatocyte degeneration and necrosis and inflammatory cell infiltration” value is listed as “alleviate”; the hepatocyte regeneration entry is “promote”; the “serum transaminase elevation in animals” value is on record as “significantly inhibit”. Besides, the “effect against liver injury compared with natural glycyrrhizic acids” value in data set [3] (versus natural glycyrrhizic acids) is given as “obviously superior”.
